Test results taken from patent publication US12324927B2, “Methods and systems for photodynamic therapy calculations” (THE TRUSTEES OF THE UNIVERSITY OF PENNSYLVANIA, priority 2018, dated 2025).

Assay: Clinical ROSED during Photofrin-mediated pleural PDT (light fluence, Photofrin concentration, DCS blood flow)
Format: in vivo, human
Method: Patients with pathologically confirmed epithelioid malignant pleural mesothelioma were enrolled in a phase II randomized clinical trial of extended pleurectomy/decortication with or without Photofrin-mediated PDT. Photofrin (provided by Pinnacle Biologics, Chicago, IL, USA) was administered at 2 mg per kg of body weight as an intravenous infusion approximately 24 hours prior to the anticipated time of intra-operative PDT. After surgically resecting all gross disease, PDT treatment was performed with 630 nm light to a total fluence of 60 J/cm^2 as previously described (24-28). Briefly, the pleural cavity was filled with diluted Intralipid solution to aid with light scattering and 60 J/cm^2 630 nm light was delivered to the pleural cavity via an optical fiber inserted into modified endotracheal tube filled with 0.1% Intralipid. Homogeneous light delivery is accomplished by continuously moving the light source around the pleural cavity b with continuous feedback monitoring of light fluence rate and cumulative fluence provided by 8 isotropic detectors (Medlight, Switzerland) sutured to the chest wall. Four of the eight isotropic detectors were used to monitor the light dose and Photofrin fluorescence simultaneously. Long pass filters (Semrock, Inc., Rochester, NY, USA) were used to block the treatment light before the fluorescence was recorded by 4 single channel spectrometers (Exemplar, B&W Tek, Inc., Newark, DE, USA).
PDT dose dosimeter consists of photodiodes for light fluence rates measurements and spectrometers for fluorescence measurements. More details about PDT dosimeter and the quantification of absolute Photofrin concentration from measured fluorescence spectra can be found in (19).
Measurement of blood flow during clinical PDT: DCS monitoring of tissue blood flow during pleural PDT was implemented using a custom built DCS contact probe as shown in FIG. 15B. The contact probe consists of a side-firing multimode source fiber and three single mode detector fibers polished at 45°. Light from a continuous wave 785-nm laser with long coherence length was delivered through the source fiber, and the reflected diffuse light was collected using the detector fibers located at 0.4, 0.7 and 1.0-cm from the source fiber. Three single photon counting avalanche photodiodes were used to detect the diffuse light in parallel. The DCS probe was mounted onto a clear acrylic rectangle pad with small holes at each corner that allowed it to be sutured adjacent to one of the isotropic detectors measuring light fluence rate and photosensitizer fluorescence data. Tissue blood flow was measured continuously throughout the PDT treatment. The study started with one DCS contact probe for the first 2 patients, and it was later expanded for the next 5 patients to include the second DCS contact probe to enable simultaneous measurements of blood flow at two different pleural sites.
Calculation of [ROS]rx using ROSED: The PDT process is described by a set of kinetic equations which can be simplified to compute the production of [ROS]rx (4, 8, 9, 13). These equations are dependent on the temporal and spatial distribution of light fluence rate (ϕ), photosensitizer concentration ([S0]), ground state oxygen concentration ([^3O2]), oxygen supply rate (g), and the photosensitizer-specific reaction-rate parameters (δ, β, σ, and ξ). The relevant equations are: […]
Since Photofrin concentration and tissue oxygen were measured in this study, only Eq. (A3) is needed to calculate for [ROS]rx. For the calculation of [ROS]rx, the term on the right-hand side of Eq. (A3) is integrated over the time course of PDT treatment using the measured value of [^3O2], [S0], and light fluence rate. In vivo light fluence rate distribution can be estimated from the in-air light fluence rate using a 6-parameter analytic expression (29). Tissue optical properties needed for this calculation were obtained from diffuse reflectance measurements using the multi-fiber contact probe. […]

[1] = average of 12 sites, 7 patients

Substance: Photofrin
- range of calculated [ROS]rx (12 sites, 7 patients): 0.31−1.17 mM
- photobleaching (mean Photofrin concentrations during PDT) (all measurement sites and all patients): no sign of photobleaching
- [ROS]rx (at surface, per patient and pleural site, ROSED with blood-flow-derived oxygen, pleural apex): 0.59 mM
- mean (standard deviation) calculated [ROS]rx [1]: 0.59 ± 0.25 mM
- mean Photofrin concentration of all pleural tissues [1]: 6.2 ± 2.1 mg/kg
- [Photofrin] (mean corrected concentration per patient and pleural site, 2 mg per kg i.v. about 24 h before PDT, pleural apex): 3.9 mg/kg
